From US11135186B2, “Regulators of the endoplasmic reticulum proteostasis network” (The Scripps Research Institute, priority 2015, dated 2021) come the findings set out here.

For assay [1], the system named is XBP1-RLuc reporter (IRE1/XBP1s arm of the UPR). Put plainly: XBP1-RLuc splicing reporter, 1536-well screen in HEK293T-Rex cells. The format is cell-based. To be noted: % Tg (500 nM) activation, triplicate confirmation screen at 6.8 μM, 18 h. An excerpt:
To evaluate the selectivity of our screening hits for ATF6, we employed an alternative luciferase reporter to measure activation of the IRE1/XBP1s arm of the UPR. This reporter contains Renilla luciferase (RLuc) expressed out of frame downstream of the XBP1 splice site, preventing RLuc translation in the absence of stress (FIG. 2b)^36,37. In response to IRE1 activation, the 26-nt XBP1 intron is removed, producing a frame shift that allows for RLuc translation and activity. Robust dose-dependent activation of the XBP1-RLuc reporter upon addition of the ER stressors Tg and Tm was confirmed in HEK293T-Rex cells stably expressing the XBP1-RLuc reporter, producing a Z′ score of 0.75 for Tg.
(§1) HEK293T-Rex cells incorporating either the ERSE-FLuc or XBP1s-RLuc reporters were collected by trypsinization and resuspended at a density of 500,000 cells per mL. The assay was started by dispensing 5 μL of cell suspension into each well of white, solid-bottom 1536-well plates using a flying reagent dispenser (FRD) and placed into an online incubator 3 h. Cells were then treated with 34 nL/well of either test compounds to give final concentrations of 6.8 μM, DMSO (Low control, final concentration 0.68%, 0% activation) or […] of Delta-7 thapsigargin (High control, final concentration 500 nM, 100% activation). Plates were incubated for 18 h at 37° C., removed from the incubator and equilibrated to room temperature for 10 min. Luciferase activity was detected by addition of 5 μL of ONE-Glo reagent (Promega) to each well. After a 10 min incubation time, light emission was measured with the ViewLux reader (PerkinElmer). The percent activation of each test compound was calculated as follows: % Activation=100*(Test Compound−Median Low Control)/(Median High Control ˜Median Low Control).

For another assay, the system named is BiP expression. Description: BiP qPCR 24 h timecourse. The class given is cell-based. As for the experimental part: (§2) Cells were treated as described at 37° C., washed with Dulbecco's phosphate-buffered saline (Gibco), and then RNA was extracted using the RNeasy Mini Kit (Qiagen). qPCR reactions were performed on cDNA prepared from 500 ng of total cellular RNA using the QuantiTect Reverse Transcription Kit (Qiagen). The FastStart Universal SYBR Green Master Mix (Roche), cDNA, and appropriate human primers^4 or mouse primers (BiP; […] (SEQ ID NO: 5) and […] (SEQ ID NO: 6) purchased from Integrated DNA Technologies were used for amplifications (45 cycles of 1 min at 95° C., 10 s at 95° C., 30 sec at 60° C.) in an ABI 7900HT Fast Real Time PCR machine. Primer integrity was assessed by a thermal melt to confirm homogeneity and the absence of primer dimers. Transcripts were normalized to the housekeeping gene Rplp2 and all measurements were performed in triplicate. Data were analyzed using the RQ Manager and DataAssist 2.0 softwares (ABI).
(In general: Quantitative PCR measures a nucleic acid by following its amplification.)

The test system of assay [2] is ERSE-FLuc reporter (ATF6 arm of the UPR). Put plainly: ERSE-FLuc reporter, 1536-well confirmation screen in HEK293T-Rex cells. The class given is cell-based. To be noted: % Tg (500 nM) activation, triplicate confirmation screen at 6.8 μM, 18 h.
Source text: We employed a transcriptional reporter that quantifies activation of the ATF6 arm of the UPR in HEK293T-Rex cells. This reporter contains a fragment of the UPR-inducible BiP promoter, including three ER stress-responsive elements (ERSEs), driving expression of firefly luciferase (ERSE-FLuc; FIG. 1a)^34. We previously employed this reporter for a small-scale screen using the 1280 member compound Library of Pharmacologic Active Compounds (LoPAC) to find small molecules that activate the UPR^8. […] Optimization and miniaturization of this assay to 1536-well format was performed at the Scripps Research Institute Molecule Screening Center (SRIMSC).
as §1

In assay [3] the test system is ALLC interaction with BiP and GRP94. Put plainly: In situ cross-linking and ALLC co-immunopurification in ALMC-2 cells. The format is cell-based, human. The following applies: 10 μM, 16 h, cross-linking. The method, then:
For immunoprecipitations, cells were washed with PBS then cross-linked with 0.5 mM Dithiobis(succinimidyl propionate) (DSP) for 30 min at room temperature. The reaction was quenched by addition of 100 mM Tris pH 7.5, then RIPA buffer was added to the cell pellets for lysis. Lysates were cleared by centrifugation at centrifuged at 10000×g for 15 min. Proteins were immunopurified using sheep polyclonal free λ LC antibody (Bethyl Laboratories A80-127A) that was covalently conjugated to CNBr-activated Sepharose 4B (GE Healthcare). After four washes in RIPA buffer, proteins were eluted by boiling in Laemmli buffer+100 mM DTT and samples were separated by SDS-PAGE and transferred to nitrocellulose membranes. Blots were probed with the following primary antibodies: monoclonal mouse M2 anti-FLAG (1:500, Sigma), polyclonal rabbit anti-TTR (1:1000, Dako), rabbit polyclonal anti-human lambda light chain (1:1000, Bethyl Laboratories A90-112A), mouse monoclonal anti-Grp78 (1:500, Santa Cruz Biotechnology sc-166490), rabbit polyclonal anti-Grp94 (1:1000, GeneTex GTX103203), rabbit polyclonal anti-PDIA4 (1:1000, Protein Tech Group 14712-1-AP), mouse monoclonal anti-ATF6a (1-7) (BioAcademia, 1:1000), rabbit anti-phospho eIF2α (CellSignaling #9721, 1:500), mouse anti-eIF2α (Abcam ab5369, 1:1000) and mouse monoclonal anti β-actin (1:10000, Sigma).

For assay [4], the system named is BiP expression in HepG2 cells. Put plainly: BiP qPCR in HepG2 cells. The class given is cell-based. The method, then:
as §2

On to `O=[N+]([O-])c1ccc(N/N=C/c2ccccc2O)cc1` [Compound 263], for which the “% XBP1-RLuc activation” value in assay [1] was found to be 2.4 ± 1.0%. For the same molecule, the “time of maximal BiP induction” value with BiP expression worked out at 6 h. Also, the “% ERSE-FLuc activation” value in assay [2] is 20.7 ± 2.3%. The “ALLC interaction with BiP and GRP94” value in assay [3] is on record as “unchanged”. The “expression of the ATF6-target gene BiP in HepG2 cells” value (shortened to “expression”) in assay [4] was “induced”.

Consider `Cc1ccc(O)c(NC(=O)CCc2ccccc2)c1` [Compound 147], for which the “% XBP1-RLuc activation” value in assay [1] is on record as 17.5 ± 1.9%. In addition, in the assay with BiP expression, the “time of maximal BiP induction” value was determined as 6 h. In assay [2], the “% ERSE-FLuc activation” value came out at 63.2 ± 0.6%. Further, the “ALLC interaction with BiP and GRP94” value in assay [3] is on record as “increased”. Also, the “expression” value in assay [4] was “induced”.

Turning to `Cc1ccc(O)c(N/C=C/C(=O)c2ccc(F)cc2)c1` [Compound 132], the “% XBP1-RLuc activation” value in assay [1] was determined as 10.3 ± 7.9%. The “time of maximal BiP induction” value in the assay with BiP expression amounted to 6 h. Moreover, in assay [2], the “% ERSE-FLuc activation” value was found to be 140.1 ± 17.4%. Moreover, the “ALLC interaction with BiP and GRP94” value in assay [3] is “increased”. Also, in assay [4], the “expression” value is “induced”.
